1 compound from patent publication US20230390315A1, “COMPOSITIONS AND METHODS FOR TREATING ISCHEMIC CONDITIONS” (The Regents of the University of California, priority 2020, published 2023) can be followed below.

For one experiment, the system named is HUVEC. In words: HUVEC scratch assay. It counts as cell-based, human. The note with it: 40 uM ManN in combination with 50 ng/ml VEGF. As to the method:
BCECs (passage 6-10) and HUVEC (passage 6-8) were used in this assay. Cells were grown until about 80% confluency in 6-well plates, washed twice with PBS and then starved in serum-free DMEM (low Glucose, Hyclone) for 5 hrs before making a “scratch” using 1 ml tip. Cell monolayers were briefly washed once with serum-free media, followed by various treatments in media containing 1% FBS. 48 hrs later, the assay was stopped by adding 2 ml 4% paraformaldehyde. 20 min later, fixed cells were stained with 1 ml Crystal Violet (Sigma). Plates were washed gently under the running tap water and air-dried before taking pictures. Images were acquired by ZEISS Discovery V8 SteREO microscopy equipped with PixeLINK Megapixel FireWire camera. Quantification of wound closure was done using AxioVision LE Rel.4.4 software. Six images were taken for each sample and six measurements (in pixel) were made on each image using AxioVision LE Rel.4.4 software.

The subject of the next experiment is VEGFR2. In words: VEGF/VEGFR2 expression, cell surface amount and VEGFR2 activation in BCECs. It counts as cell-based, bovine. As to the method:
Cells were allowed to reach 80% confluency in 12-well plates. […] At various time points, plates were taken out of the incubator and kept on ice. Cell monolayers were first washed once with ice-cold PBS before lysis with 250 μl of Pierce RIPA buffer (ThermoFisher Scientific, Rockford, IL) or use 50 mM Tris-HCl (pH 7.6), 150 mM NaCl, 10% Glycerol, 1% NP-40 containing protease/Phosphatase inhibitor cocktail (100×) (Cell signaling, #5872). Lysates were collected and mixed with 4×Bolt LDS Sample Buffer (Novex, Carlsbad, CA) in the presence of Halt protease inhibitors and phosphatase inhibitor cocktail (ThermoFisher scientific, #NP0007). The samples were subjected to SDS-PAGE (Bolt 4-12% Bis-Tris Plus, Invitrogen) using Bolt MES SDS running buffer or NuPAGE 3-8% Tris-Acetate gel using Tris-Acetate SDS running buffer (Novex). HUVECs (passage 6-8) were plated in EBM-2 basal medium (Lonza) with 0.2% FBS. […] Equal amounts of protein lysates were analyzed by SDS-PAGE and blotted with the indicated antibodies. Proteins were transferred using Tris-Glycine buffer with 20% Methanol (Proteonomics grade) (Apex BioResearch Products). Membranes were first incubated with 5% milk in TBST, pH 7.6 (TEKnova, Hollister, CA), followed by blotting with primary and secondary antibodies. ECL anti-rabbit IgG, horseradish peroxidase linked whole antibody from donkey or sheep anti-mouse were obtained from GE Healthcare (UK limited). SuperSignal West Dura Extended Duration substrate was from ThermoFisher Scientific. In some cases, the same PVDF membranes were stripped by 8-min incubation in the Restore Plus Western Blot Stripping Buffer (ThermoFisher Scientific) to show total specific protein expression, followed by second stripping for β-actin expression. BCECs were plated in 10 cm cell culture dishes 3 days prior to the cell surface protein isolation. Cells were washed three times with Dulbecco's PBS with CaCl2 and MgCl2, followed by a 30 min incubation with EZ-Link Sulfo-NHS-SS-Biotin (Pierce, Rockford, IL, USA; 0.5 mg/ml in Dulbecco) on ice. […] For cell lysis 500 […]1 of lysis buffer (2% NP-40, 1% Triton X-100, 10% glycerol, 100 uM oxidized glutathione, EDTA free protease inhibitor tablet (Roche, Mannheim, Germany) in PBS was added to the cells. Lysed cell extracts were scraped off the plates and transferred to an Eppendorf tube followed by incubation on ice on a shaker for 30 mins. The cell extracts were incubated with 30 U of DNase (22° C. 50 mins, Roche, Mannheim, Germany) and centrifuged for 20 mins (20,800×g, at 4° C.) to pellet the insoluble material. The protein concentration of the supernatants was determined. Equal amounts of protein ( 2 mg) from each extract were used for cell surface protein isolation. […]

As for `N[C@H](C=O)[C@@H](O)[C@H](O)[C@H](O)CO` [ManN, 2-Amino-2-deoxy-D-mannose], the HUVEC wound closure entry in the experiment on HUVEC is “stimulation of migration and wound closure”. For the same compound, the “amount of VEGFR2 on cell surface (biotinylation)” value with VEGFR2 is listed as “no changes in the amount of VEGFR2 on cell surface”. For the same compound, in the experiment on VEGFR2 (4 hours (gene) or 24 hours (protein)), the “transcription of VEGF, VEGFR2, GLUT1 & 4 and total VEGFR2 protein expression” value is “neither transcription of VEGF, VEGFR2 and GLUT1 & 4 nor total VEGFR2 protein expression was significantly changed”. Also, the “VEGFR2 phosphorylation in response to VEGF” value with VEGFR2 (ManN pre-treated cells) is “decreased”. Besides, in the experiment with VEGFR2 (after ManN addition), the “ligand-independent VEGFR2 activation” value was “No ligand-independent VEGFR2 activation occurred”.
